# Source: publication PMC10066322 (Scientific Reports, 2023)
# Molecular target: T1, PARN1-430 (Homo sapiens, UniProt O95453)
# T1 construct: expression of the C-terminal truncated protein (1-430 aa of PARN) was soluble; His tag (from the pCold I vector); made in house; host or cells: E. coli Rosetta 2 DE
# T1 sequence (O95453 1-430): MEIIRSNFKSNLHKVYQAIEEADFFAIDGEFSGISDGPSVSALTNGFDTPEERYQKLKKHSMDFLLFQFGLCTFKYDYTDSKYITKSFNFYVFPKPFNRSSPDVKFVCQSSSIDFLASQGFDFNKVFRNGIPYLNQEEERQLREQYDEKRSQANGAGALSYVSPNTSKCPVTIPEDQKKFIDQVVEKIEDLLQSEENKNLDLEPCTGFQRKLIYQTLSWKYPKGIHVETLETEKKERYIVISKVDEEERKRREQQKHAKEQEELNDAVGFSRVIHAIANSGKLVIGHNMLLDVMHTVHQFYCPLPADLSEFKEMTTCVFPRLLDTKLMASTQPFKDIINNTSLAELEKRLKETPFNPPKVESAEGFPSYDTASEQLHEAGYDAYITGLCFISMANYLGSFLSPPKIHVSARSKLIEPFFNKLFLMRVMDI
# Assay: Inhibition fluorescence assay (FAM-RNA / BHQ quencher deadenylase assay)
# Type: biochemical
# Details: 2.5 mM AMP, PARN1-430 73 nM
# Protocol: To easily screen compounds for inhibition of PARN activity, we developed an assay in which fluorescence was used as the readout for monitoring PARN1-430’s activity (Fig. 3a). This assay was modeled on a similar assay developed for Caf1/CNOT7 deadenylase. In this assay, PARN1-430 was incubated with a 5′-fluorescently labeled oligoadenylated RNA. In the absence of deadenylation, this substrate RNA can effectively hybridize to a complementary DNA oligonucleotide with a quencher on its 3′ end leading to a loss of fluorescence (Fig. 3a). When the RNA substrate is deadenylated, the quenching oligonucleotide is no longer able to stably hybridize leading to an increase in fluorescence in the reaction.
# Figure 3 Developing a fluorescence assay for PARN inhibition. (a) Cartoon depicting the inhibition fluorescence assay. Schematic diagram of the fluorescence-based deadenylase assay. The assay is based on a 5′ FAM-labelled RNA oligonucleotide substrate. After incubation of the substrate in the presence of PARN1-430, the reaction is stopped and a 3′ BHQ-labelled DNA oligonucleotide probe complementary to the RNA substrate is added. The fluorescence of intact substrate is quenched upon probe hybridization because of the proximity of the BHQ […]. In contrast, the BHQ-labelled probe cannot hybridize to the FAM-labelled reaction product allowing detection of FAM fluorescence. […] 2-way ANOVA, multiple comparisons test, average ± SD, n = 3 replicates. *P < 0.05, **P < 0.005, ***P < 0.001, ****P < 0.0001, n.s. was not indicated. […] Dotted-line represents RNA and RNA + Quencher data. One-way ANOVA, multiple comparisons test, average ± SD, n ≥ 3 replicates. *P < 0.05, **P < 0.005, ***P < 0.001, ****P < 0.0001, n.s. was not indicated. (d) PARN1-430 and PARNmut enzymatic activity measured at different time points. […] Dotted-line represents RNA and RNA + Quencher data. 2-way ANOVA, multiple comparisons test, average ± SD, n = 3 replicates. *P < 0.05, **P < 0.005, ***P < 0.001, ****P < 0.0001, n.s. was not indicated.
# Quenched reaction was incubated at room temperature for 10–60 min and fluorescence was measured using Fluorescein wavelength measurement.
row,Molecule,"inhibition of PARN1-430, fluorescence assay"
1,"Nc1ncnc2c1ncn2[C@@H]1O[C@H](COP(=O)(O)O)[C@@H](O)[C@H]1O [AMP, adenosine monophosphate]",effectively inhibited

# Same assay, conditions: computational docking compounds; fluorescence assay and gels; PARN1-430 pretreated with drug 10 min
row,Molecule,PARN inhibitor in vitro
1,"Nc1ncnc2c1c(I)cn2C1OC(CO)C(O)C1O (stereo not shown) [5-ITU, 5-Iodotubercidin]",No
2,Nc1ncnc2c1c(Br)cn2[C@@H]1O[C@H](CO)[C@@H](O)[C@H]1O [5-bromotubercidine],No
3,NC(=O)c1ncn([C@@H]2O[C@H](CO)[C@@H](O)[C@H]2O)c1N [AICAR],No
4,CCn1nc(C2CCN(C(=O)CCO)CC2)nc1-c1cnc(N)c(-c2nnc(C(C)(C)C)o2)n1 [AZD8835],No
5,Nc1nc(Cl)nc2c1ncn2[C@H]1C[C@H](O)[C@@H](CO)O1 [Cladribine],Yes
6,Nc1nc(Cl)nc2c1ncn2[C@@H]1O[C@H](CO)[C@@H](O)[C@@H]1F [Clofarabine],No
7,Nc1ncnc2c1ncn2[C@H]1O[C@@H](CO)[C@H](O)[C@@H]1O [L-adenosine],No
8,CNC(=O)c1cnn(-c2nc(N)c3ncn([C@@H]4O[C@H](CO)[C@@H](O)[C@H]4O)c3n2)c1 [Regadenoson],Yes
9,COc1nc(N)c2ncn([C@@H]3O[C@H](CO)[C@@H](O)[C@H]3O)c2n1 [Spongosine],Yes
10,Nc1cccc(-c2cc3c(Oc4cccc(O)c4)ncnc3[nH]2)c1 [TWS119],No
11,Nc1ncnc2c1ccn2[C@@H]1O[C@H](CO)[C@@H](O)[C@H]1O [Tubercidine],Yes
12,Nc1ncnc2c1ncn2[C@@H]1O[C@H](CO)[C@@H](O)[C@@H]1O [Vidarabine],No

# Molecular target: T2, PARN (Homo sapiens, UniProt O95453)
# T2 construct: expression of the C-terminal truncated protein (1-430 aa of PARN) was soluble; His tag (from the pCold I vector); made in house; host or cells: E. coli Rosetta 2 DE
# T2 sequence (O95453 1-430): T1 sequence (O95453 1-430)
# Assay: High-throughput screening fluorescence assay with 8-point IC50 curves
# Type: biochemical
# Details: high-throughput screening hits; 8 points 1:3 dilution, top 100 µM
# Protocol: To identify PARN inhibitors in a high-throughput manner, 24,000 compounds from the Enamine kinase library were tested in a HTS utilizing the fluorescence assay (Fig. 3a).
# 2 µL of protein (100 nM final concentration) (stock protein was diluted in 1× lysis buffer (HEPES KOH, pH 7.4, 30 mM, KOAc 100 mM, and Mg(OAc)2 2 mM) was added to wells using offline Multidrop Combi nL. The reaction was pre-incubated with 12.5 nL of Sygnature library (Enamine kinase library (HBL-24) (31.25 μM) for 15 min before 2 µL of RNA (10 µM) was added (DMSO was added to control wells using Echo 655). The reaction was incubated at 22 °C for 20 min in Cytomat automatic incubator. After the incubation, the reaction was quenched by adding 4 µL of quencher solution (30 µM of 3′-BHQ labeled quench DNA in 1% SDS) using Multidrop Combi nL. The quenched reaction was incubated at room temperature for 10 min and fluorescence was measured using PHERAstar FSX (λ485/520). For the counter screen, no protein was added to the reaction.
# Curves were fitted within Genedata using SmartFit algorithm.
row,Molecule,IC50
1,O=C(Nc1ncnc2c1ncn2[C@@H]1O[C@H](CO)C[C@H](F)[C@H]1O)c1ccccc1 [TH18],0.2 µM

# Molecular target: T1, PARN1-430
# Assay: Gel assay of poly(A) RNA shortening by PARN1-430
# Type: biochemical
# Details: not given
# Protocol: PARN1-430 was incubated with a fluorescently labeled RNA with a CCUUUCC sequence followed by a 9 nucleotide-long poly(A) tail and the reaction product was visualized on denaturing acrylamide gels. We observed that PARN removed the 3′ oligo(A) tail from the RNA substrate (Fig. 2c and d). […] Moreover, we observed that PARN is inhibited when treated with adenosine monophosphate (AMP), as has been reported previously.
# 1 µL of protein (73 nM as final concentration) (stock protein is diluted in 1× lysis buffer (HEPES KOH, pH 7.4, 30 mM, KOAc 100 mM, and Mg(Oac)2 2 mM) was added to 4 µL of 2.5× reaction buffer (Tris–HCl pH 7.4, 10 mM, KCl 50 mM, MgCl2 5 mM). If drug was added, reaction was pre-incubated with drugs for 10 min before 5 µL of RNA (5 µM as final concentration) was added. The reaction was incubated at 37 °C for 20 min. After the incubation, the reaction was either diluted with 2× loading buffer and heated to 95 °C for 5 min for gel or quenched by adding 10 µL of quencher solution (30 µM of 3′-BHQ labeled quench DNA in 1% SDS). Quenched reaction was incubated at room temperature for 10–60 min and fluorescence was measured using Fluorescein wavelength measurement.
# 15% TBE-Urea gel (Thermo Fisher Scientific) was prerun at 20W for 30 min. RNAs from the reaction was loaded into 15% TBE gels and run at 300 V for 35 min. The gel was visualized using iBright (Invitrogen FL1500).
row,Molecule,"inhibitory effect on PARN1-430, gel assay"
1,"Nc1ncnc2c1ncn2[C@@H]1O[C@H](COP(=O)(O)O)[C@@H](O)[C@H]1O [AMP, adenosine monophosphate]",inhibited

# Same assay, conditions: 20 μM compound
row,Molecule,inhibition of PARN on gels
1,O=C(Nc1ncnc2c1ncn2[C@@H]1O[C@H](CO)C[C@H](F)[C@H]1O)c1ccccc1 [TH18],"could inhibit PARN at 20 μM, except for TH18"

# Test system: PARN activity in Hela cells
# Assay: miR-21-5p levels in Hela cells by northern blotting (PARN inhibition in cells)
# Type: cell-based, human
# Details: 10 µM, 2 days
# Protocol: 48 h after transfection/drug treatment, cells were collected for either RNA or protein analysis.
# Total RNA was extracted from cell lysates using TriZol as per manufacturer’s protocol and DNAse treated. After quantification on Nanodrop, total RNA was separated on an acrylamide 7 M Urea gel. RNA was transferred to a nylon membrane (Nytran SPC, GE Healthcare) using semiwet transfer. After UV/EDC crosslinking, the blot was pre-hybridized and hybridized in PerfectHyb Plus Hybridization Buffer (Sigma Aldrich) at 42 °C. Northern probes have been previously described[11],[48]. After hybridization and washing in 2 × SSC 0.1% SDS wash buffer, blots were exposed to a cassette and imaged on a Typhoon FLA 9500 Phosphoimager. Band intensities were quantified using ImageJ and normalized to the U1 levels under each condition.
row,Molecule,PARN inhibitor in cells
1,O=C(Nc1ncnc2c1ncn2[C@@H]1O[C@H](CO)C[C@H](F)[C@H]1O)c1ccccc1 [TH18],No

# Molecular target: T2, PARN
# Assay: not given
# Details: cited from earlier work
Molecule,Ki,PARN inhibitor in vitro,concentration at which PARN1-430 is inhibited
"O=C(Nc1ncnc2c1ncn2[C@@H]1O[C@H](CO)C[C@H](F)[C@H]1O)c1ccccc1 [A2, 9-(3′,4′, dideoxy-3′-fluoro-β-d-glucopyranosyl)-N6-benzoyl adenine]",510 ± 52 µM,Yes,–
"O=C(Nc1ncnc2c1ncn2[C@@H]1O[C@H](CO)C[C@H](F)[C@H]1O)c1ccccc1 [A6, 1-(3′,4′, dideoxy-3′-fluoro-β-d-glucopyranosyl)-N4-benzoyl adenine]",210 ± 45 µM,Yes,–
"Nc1ncnc2c1ncn2[C@@H]1O[C@H](COP(=O)(O)O)[C@@H](O)[C@H]1O [AMP, adenosine monophosphate]",–,–,> 1 mM
OC[C@H]1OC(O)[C@H](O)[C@@H](F)[C@@H]1O (stereo partly shown) [B6],–,Yes,–
"O=c1[nH]c(=O)n([C@@H]2O[C@H](CO)[C@@H](O)[C@H](F)[C@H]2O)cc1F [FU1, 1-(3′-deoxy-3′-fluoro-β-d-glucopyranosyl) 5-fluorouracil]",98 ± 12 µM,Yes,–
NC[C@H]1O[C@H](O[C@H]2[C@H](O)[C@@H](O[C@H]3O[C@H](CO)[C@@H](O)[C@H](N)[C@H]3O)[C@H](N)C[C@@H]2N)[C@H](N)[C@@H](O)[C@@H]1O [Kanamycin B],7.3 ± 0.4 µM,Yes,–
NC[C@@H]1O[C@H](O[C@H]2[C@@H](O)[C@H](O[C@@H]3[C@@H](O)[C@H](N)C[C@H](N)[C@H]3O[C@H]3O[C@H](CO)[C@@H](O)C[C@H]3N)O[C@@H]2CO)[C@H](N)[C@@H](O)[C@@H]1O[C@H]1O[C@H](CO)[C@@H](O)[C@H](O)[C@@H]1O [Lividomycin],18.7 ± 2.8 µM,Yes,–
NC[C@@H]1O[C@H](O[C@H]2[C@@H](O)[C@H](O[C@@H]3[C@@H](O)[C@H](N)C[C@H](N)[C@H]3O[C@H]3O[C@H](CN)[C@@H](O)[C@H](O)[C@H]3N)O[C@@H]2CO)[C@H](N)[C@@H](O)[C@@H]1O [Neomycin B],0.4 ± 0.1 µM,Yes,–
NC[C@@H]1O[C@H](O[C@H]2[C@@H](O)[C@H](O[C@@H]3[C@@H](O)[C@H](N)C[C@H](N)[C@H]3O[C@H]3O[C@H](CO)[C@@H](O)[C@H](O)[C@H]3N)O[C@@H]2CO)[C@H](N)[C@@H](O)[C@@H]1O [Paromomycin],17.3 ± 3.5 µM,Yes,–
"Cc1cn([C@@H]2O[C@H](CO)[C@@H](O)[C@H](F)[C@H]2O)c(=O)[nH]c1=O [T1, 1-(3′-deoxy-3′-fluoro-β-d-glucopyranosyl) thymine]",135 ± 18 µM,Yes,–
NC[C@H]1O[C@H](O[C@H]2[C@H](O)[C@@H](O[C@H]3O[C@H](CO)[C@@H](O)[C@H](N)[C@H]3O)[C@H](N)C[C@@H]2N)[C@H](N)C[C@@H]1O [Tobramycin],7.1 ± 0.2 µM,Yes,–
"O=c1ccn([C@@H]2O[C@H](CO)[C@@H](O)[C@H](F)[C@H]2O)c(=O)[nH]1 [U1, 1-(3′-deoxy-3′-fluoro-β-d-glucopyranosyl) uracil]",19 ± 5 µM,Yes,–
Kanamycin A,–,Yes,–
